In US20240208992A1, “MACROCYCLES AS CFTR MODULATORS” (Idorsia Pharmaceuticals Ltd, priority 2021, published 2024):

Target: human F508del-CFTR (Homo sapiens, UniProt P13569, DEL508-508)
Assay: F508del-CFTR cell surface expression (corrector activity), DiscoveRx ß-galactosidase complementation chemiluminescence assay in recombinant U2OS cell line;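 further: U2OS cells co-expressing ProLink-tagged F508del-CFTR and a membrane-anchored enzyme acceptor, where more surface CFTR restores β-galactosidase activity measured by chemiluminescence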
Conditions: U2OS cell line, 16h compound incubation; for EC50: EC50, F508del-CFTR cell surface expression, geomean values; for Emax: U2OS, in relation to the Emax of the corrector lumacaftor (=100%), arithmetic mean values

Chain of human F508del-CFTR (P13569 with tags, fused parts or gaps DEL508-508): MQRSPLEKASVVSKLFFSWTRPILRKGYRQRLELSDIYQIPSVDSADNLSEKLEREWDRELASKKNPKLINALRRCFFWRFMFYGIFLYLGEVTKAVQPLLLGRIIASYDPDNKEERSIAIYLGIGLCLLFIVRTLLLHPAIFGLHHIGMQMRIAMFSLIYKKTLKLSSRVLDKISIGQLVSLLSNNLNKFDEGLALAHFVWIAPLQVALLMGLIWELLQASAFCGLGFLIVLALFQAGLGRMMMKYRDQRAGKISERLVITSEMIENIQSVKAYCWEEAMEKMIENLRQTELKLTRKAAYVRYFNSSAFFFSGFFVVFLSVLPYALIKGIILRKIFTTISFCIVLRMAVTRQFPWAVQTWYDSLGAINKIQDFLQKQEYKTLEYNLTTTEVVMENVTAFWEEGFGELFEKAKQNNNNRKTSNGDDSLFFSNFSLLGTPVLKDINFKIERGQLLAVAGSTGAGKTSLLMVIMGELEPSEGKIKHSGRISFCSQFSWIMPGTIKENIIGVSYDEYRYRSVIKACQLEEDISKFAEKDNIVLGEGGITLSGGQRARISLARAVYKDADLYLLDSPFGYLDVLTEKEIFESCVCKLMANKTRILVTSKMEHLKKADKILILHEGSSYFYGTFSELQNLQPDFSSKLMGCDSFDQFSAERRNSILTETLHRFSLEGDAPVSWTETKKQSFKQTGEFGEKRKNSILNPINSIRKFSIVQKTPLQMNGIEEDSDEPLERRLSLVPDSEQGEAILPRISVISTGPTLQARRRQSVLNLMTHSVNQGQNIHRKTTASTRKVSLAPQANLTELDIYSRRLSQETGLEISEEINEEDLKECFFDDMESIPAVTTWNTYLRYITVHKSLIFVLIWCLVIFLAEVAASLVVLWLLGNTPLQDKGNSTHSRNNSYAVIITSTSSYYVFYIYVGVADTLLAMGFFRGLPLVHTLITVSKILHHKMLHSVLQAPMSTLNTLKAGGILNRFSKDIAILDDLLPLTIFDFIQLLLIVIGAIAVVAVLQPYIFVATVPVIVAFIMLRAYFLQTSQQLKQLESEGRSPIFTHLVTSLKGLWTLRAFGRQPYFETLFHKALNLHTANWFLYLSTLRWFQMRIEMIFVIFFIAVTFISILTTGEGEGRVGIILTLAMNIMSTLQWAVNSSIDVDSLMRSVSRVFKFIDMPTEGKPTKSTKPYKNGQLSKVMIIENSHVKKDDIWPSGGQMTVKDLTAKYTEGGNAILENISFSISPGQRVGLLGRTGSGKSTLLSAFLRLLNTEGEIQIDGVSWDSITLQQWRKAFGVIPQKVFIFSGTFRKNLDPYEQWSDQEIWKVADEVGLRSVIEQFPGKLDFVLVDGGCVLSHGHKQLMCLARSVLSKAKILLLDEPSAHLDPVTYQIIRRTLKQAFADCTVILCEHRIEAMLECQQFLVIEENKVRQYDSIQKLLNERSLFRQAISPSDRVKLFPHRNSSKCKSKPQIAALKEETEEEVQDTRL

| SMILES | EC50 [nM] | Emax [%] |
| --- | --- | --- |
| CC(C)C[C@H]1C(=O)N2CCCC[C@@H]2C(=O)N[C@H](Cc2ccccc2)COc2ccc3ncn(C)c3c2C(=O)N[C@H](C(=O)NCCc2ccc(-n3nccn3)cc2)CC(=O)N1C [Example 31, (8S,12S,18aR,21R)-N-(4-(2H-1,2,3-triazol-2-yl)phenethyl)-21-benzyl-12-isobutyl-5,11-dimethyl-6,10,13,19-tetraoxo-6,7,8,9,10,11,12,13,16,17,18,18a,19,20,21,22-hexadecahydro-5H,15H-imidazo[4′,5′:5,6]benzo[1,2-p]pyrido[2,1-f][1]oxa[4,7,10,14]tetraazacycloheptadecine-8-carboxamide] | 463 | 111 |
| COc1cccc2c1OC[C@@H](NC(=O)[C@@H]1CC(=O)N(C)[C@@H](CC(C)C)C(=O)N3CCOC[C@@H]3C(=O)N[C@H](Cc3ccccc3)COc3ccc4ccccc4c3C(=O)N1)C2 [Example 32, (4aR,7R,18S,22S)-7-benzyl-22-isobutyl-N-(-8-methoxychroman-3-yl)-21-methyl-5,16,20,23-tetraoxo-1,2,4,4a,5,6,7,8,16,17,18,19,20,21,22,23-hexadecahydronaphtho[1,2-p][1,4]oxazino[3,4-f][1]oxa[4,7,10,14]tetraazacycloheptadecine-18-carboxamide] | 318 | 146 |
| Cc1c(CCNC(=O)[C@@H]2CC(=O)N(C)[C@@H](CC(C)C)C(=O)N3CCOC[C@@H]3C(=O)N[C@H](Cc3ccccc3)COc3ccc4ccccc4c3C(=O)N2)c(Cl)cc2c1OCCO2 [Example 36, (4aR,7R,18S,22S)-7-benzyl-N-(2-(7-chloro-5-methyl-2,3-dihydrobenzo[b][1,4]dioxin-6-yl)ethyl)-22-isobutyl-21-methyl-5,16,20,23-tetraoxo-1,2,4,4a,5,6,7,8,16,17,18,19,20,21,22,23-hexadecahydronaphtho[1,2-p][1,4]oxazino[3,4-f][1]oxa[4,7,10,14]tetraazacycloheptadecine-18-carboxamide] | 306 | 120 |
| CC(C)C[C@H]1C(=O)N2CCOC[C@@H]2C(=O)N[C@H](Cc2ccccc2)COc2ccc3ccccc3c2C(=O)N[C@H](C(=O)NCCc2cc3c(cc2Cl)OCCO3)CC(=O)N1C [Example 37, (4aR,7R,18S,22S)-7-benzyl-N-(2-(7-chloro-2,3-dihydrobenzo[b][1,4]dioxin-6-yl)ethyl)-22-isobutyl-21-methyl-5,16,20,23-tetraoxo-1,2,4,4a,5,6,7,8,16,17,18,19,20,21,22,23-hexadecahydronaphtho[1,2-p][1,4]oxazino[3,4-f][1]oxa[4,7,10,14]tetraazacycloheptadecine-18-carboxamide] | 122 | 205 |
| CC(C)C[C@H]1C(=O)N2CCOC[C@@H]2C(=O)N[C@H](Cc2ccccc2)COc2ccc3ccccc3c2C(=O)N[C@H](C(=O)NCCc2noc3ccccc23)CC(=O)N1C [Example 38, (4aR,7R,18S,22S)-N-(2-(benzo[d]isoxazol-3-yl)ethyl)-7-benzyl-22-isobutyl-21-methyl-5,16,20,23-tetraoxo-1,2,4,4a,5,6,7,8,16,17,18,19,20,21,22,23-hexadecahydronaphtho[1,2-p][1,4]oxazino[3,4-f][1]oxa[4,7,10,14]tetraazacycloheptadecine-18-carboxamide] | 299 | 191 |
| CC(C)C[C@H]1C(=O)N2CCOC[C@@H]2C(=O)N[C@H](Cc2ccccc2)COc2ccc3ccccc3c2C(=O)N[C@H](C(=O)NCCc2ccc3c(c2)OCCO3)CC(=O)N1C [Example 39, (4aR,7R,18S,22S)-7-benzyl-N-(2-(2,3-dihydrobenzo[b][1,4]dioxin-6-yl)ethyl)-22-isobutyl-21-methyl-5,16,20,23-tetraoxo-1,2,4,4a,5,6,7,8,16,17,18,19,20,21,22,23-hexadecahydronaphtho[1,2-p][1,4]oxazino[3,4-f][1]oxa[4,7,10,14]tetraazacycloheptadecine-18-carboxamide] | 415 | 450 |
| CC(C)C[C@H]1C(=O)N2CCOC[C@@H]2C(=O)N[C@H](Cc2ccccc2)COc2ccc3ccccc3c2C(=O)N[C@H](C(=O)NCCc2cccc(-n3nccn3)c2)CC(=O)N1C [Example 41, (4aR,7R,18S,22S)-N-(3-(2H-1,2,3-triazol-2-yl)phenethyl)-7-benzyl-22-isobutyl-21-methyl-5,16,20,23-tetraoxo-1,2,4,4a,5,6,7,8,16,17,18,19,20,21,22,23-hexadecahydronaphtho[1,2-p][1,4]oxazino[3,4-f][1]oxa[4,7,10,14]tetraazacycloheptadecine-18-carboxamide] | 280 | 215 |
| Cc1noc(C)c1CCNC(=O)[C@@H]1CC(=O)N(C)[C@@H](CC(C)C)C(=O)N2CCOC[C@@H]2C(=O)N[C@H](Cc2ccccc2)COc2ccc3ccccc3c2C(=O)N1 [Example 43, (4aR,7R,18S,22S)-7-benzyl-N-(2-(3,5-dimethylisoxazol-4-yl)ethyl)-22-isobutyl-21-methyl-5,16,20,23-tetraoxo-1,2,4,4a,5,6,7,8,16,17,18,19,20,21,22,23-hexadecahydronaphtho[1,2-p][1,4]oxazino[3,4-f][1]oxa[4,7,10,14]tetraazacycloheptadecine-18-carboxamide] | 862 | 137 |
| CCc1nc(CCNC(=O)[C@@H]2CC(=O)N(C)[C@@H](CC(C)C)C(=O)N3CCOC[C@@H]3C(=O)N[C@H](Cc3ccccc3)COc3ccc4ccccc4c3C(=O)N2)no1 [Example 44, (4aR,7R,18S,22S)-7-benzyl-N-(2-(5-ethyl-1,2,4-oxadiazol-3-yl)ethyl)-22-isobutyl-21-methyl-5,16,20,23-tetraoxo-1,2,4,4a,5,6,7,8,16,17,18,19,20,21,22,23-hexadecahydronaphtho[1,2-p][1,4]oxazino[3,4-f][1]oxa[4,7,10,14]tetraazacycloheptadecine-18-carboxamide] | 571 | 247 |

Continued by falling EC50, values first:

| EC50 [nM] | Emax [%] | SMILES |
| --- | --- | --- |
| 897 | 147 | CC(C)C[C@H]1C(=O)N2CCOC[C@@H]2C(=O)N[C@H](Cc2ccccc2)COc2ccc3ccccc3c2C(=O)N[C@H](C(=O)NCCc2ccc(C#N)cc2)CC(=O)N1C [Example 40, (4aR,7R,18S,22S)-7-benzyl-N-(4-cyanophenethyl)-22-isobutyl-21-methyl-5,16,20,23-tetraoxo-1,2,4,4a,5,6,7,8,16,17,18,19,20,21,22,23-hexadecahydronaphtho[1,2-p][1,4]oxazino[3,4-f][1]oxa[4,7,10,14]tetraazacycloheptadecine-18-carboxamide] |
| 353 | 419 | CC(C)C[C@H]1C(=O)N2CCOC[C@@H]2C(=O)N[C@H](Cc2ccccc2)COc2ccc3ccccc3c2C(=O)N[C@H](C(=O)NCCc2ccc3c(c2)OCC3)CC(=O)N1C [Example 42, (4aR,7R,18S,22S)-7-benzyl-N-(2-(2,3-dihydrobenzofuran-6-yl)ethyl)-22-isobutyl-21-methyl-5,16,20,23-tetraoxo-1,2,4,4a,5,6,7,8,16,17,18,19,20,21,22,23-hexadecahydronaphtho[1,2-p][1,4]oxazino[3,4-f][1]oxa[4,7,10,14]tetraazacycloheptadecine-18-carboxamide] |
| 275 | 113 | CC(C)C[C@H]1C(=O)N2CCCC[C@@H]2C(=O)N[C@H](Cc2ccccc2)COc2ccc3ncn(C)c3c2C(=O)N[C@H](C(=O)NCCc2noc3ccccc23)CC(=O)N1C [Example 30, (8S,12S,18aR,21R)-N-(2-(benzo[d]isoxazol-3-yl)ethyl)-21-benzyl-12-isobutyl-5,11-dimethyl-6,10,13,19-tetraoxo-6,7,8,9,10,11,12,13,16,17,18,18a,19,20,21,22-hexadecahydro-5H,15H-imidazo[4′,5′:5,6]benzo[1,2-p]pyrido[2,1-f][1]oxa[4,7,10,14]tetraazacycloheptadecine-8-carboxamide] |
| 262 | 109 | COc1cc2c(cc1CCNC(=O)[C@@H]1CC(=O)N(C)[C@@H](CC(C)C)C(=O)N3CCOC[C@@H]3C(=O)N[C@H](Cc3ccccc3)COc3ccc4ccccc4c3C(=O)N1)OCCO2 [Example 35, (4aR,7R,18S,22S)-7-benzyl-22-isobutyl-N-(2-(7-methoxy-2,3-dihydrobenzo[b][1,4]dioxin-6-yl)ethyl)-21-methyl-5,16,20,23-tetraoxo-1,2,4,4a,5,6,7,8,16,17,18,19,20,21,22,23-hexadecahydronaphtho[1,2-p][1,4]oxazino[3,4-f][1]oxa[4,7,10,14]tetraazacycloheptadecine-18-carboxamide] |
| 260 | 121 | COc1ccc(OCCNC(=O)[C@@H]2CC(=O)N(C)[C@@H](CC(C)C)C(=O)N3CCOC[C@@H]3C(=O)N[C@H](Cc3ccccc3)COc3ccc4ccccc4c3C(=O)N2)cc1 [Example 34, (4aR,7R,18S,22S)-7-benzyl-22-isobutyl-N-(2-(4-methoxyphenoxy)ethyl)-21-methyl-5,16,20,23-tetraoxo-1,2,4,4a,5,6,7,8,16,17,18,19,20,21,22,23-hexadecahydronaphtho[1,2-p][1,4]oxazino[3,4-f][1]oxa[4,7,10,14]tetraazacycloheptadecine-18-carboxamide] |
| 255 | 141 | COc1cccc(OCCNC(=O)[C@@H]2CC(=O)N(C)[C@@H](CC(C)C)C(=O)N3CCOC[C@@H]3C(=O)N[C@H](Cc3ccccc3)COc3ccc4ccccc4c3C(=O)N2)c1 [Example 33, (4aR,7R,18S,22S)-7-benzyl-22-isobutyl-N-(2-(3-methoxyphenoxy)ethyl)-21-methyl-5,16,20,23-tetraoxo-1,2,4,4a,5,6,7,8,16,17,18,19,20,21,22,23-hexadecahydronaphtho[1,2-p][1,4]oxazino[3,4-f][1]oxa[4,7,10,14]tetraazacycloheptadecine-18-carboxamide] |
